Source: PMC8699473, “An Easily Expandable Multi-Drug LC-MS Assay for the Simultaneous Quantification of 57 Oral Antitumor Drugs in Human Plasma” (Cancers, 2021)

Assay: Long-term stability in spiked pooled human plasma

| SMILES | Long-term stability, 1 month, -20°C Accuracy [%] (validation standard 2xLLOV) | Long-term stability, 1 month, -80°C Accuracy [%] (validation standard 2xLLOV) | Long-term stability, 2 month, -20°C Accuracy [%] (validation standard 2xLLOV) | Long-term stability, 2 month, -80°C Accuracy [%] (validation standard 2xLLOV) | Long-term stability, 3 month, -20°C Accuracy [%] (validation standard 2xLLOV) | Long-term stability, 3 month, -80°C Accuracy [%] (validation standard 2xLLOV) | Long-term stability, 6 weeks, 4°C, without daylight Accuracy [%] (validation standard 2xLLOV) | Long-term stability, 1 month, -20°C Accuracy [%] (validation standard LLOV) | Long-term stability, 1 month, -80°C Accuracy [%] (validation standard LLOV) | Long-term stability, 2 month, -20°C Accuracy [%] (validation standard LLOV) | Long-term stability, 2 month, -80°C Accuracy [%] (validation standard LLOV) | Long-term stability, 3 month, -20°C Accuracy [%] (validation standard LLOV) | Long-term stability, 3 month, -80°C Accuracy [%] (validation standard LLOV) | Long-term stability, 6 weeks, 4°C, without daylight Accuracy [%] (validation standard LLOV) | Long-term stability, 1 month, -20°C Accuracy [%] (validation standard MOV) | Long-term stability, 1 month, -80°C Accuracy [%] (validation standard MOV) | Long-term stability, 2 month, -20°C Accuracy [%] (validation standard MOV) | Long-term stability, 2 month, -80°C Accuracy [%] (validation standard MOV) | Long-term stability, 3 month, -20°C Accuracy [%] (validation standard MOV) | Long-term stability, 3 month, -80°C Accuracy [%] (validation standard MOV) | other results |
| --- | --- | --- | --- | --- | --- | --- | --- | --- | --- | --- | --- | --- | --- | --- | --- | --- | --- | --- | --- | --- | --- |
| CNC(=O)c1ccc(N2C(=S)N(c3ccc(C#N)c(C(F)(F)F)c3)C(=O)C2(C)C)cc1F [Enzalutamide] | 92.7 | 87.8 | 91.5 | 92.9 | 87.1 | 89.0 | 96.8 | 92.6 | 82.3 | 90.2 | 94.8 | 88.7 | 88.4 | 97.2 | 90.3 | 90.6 | 92.8 | 95.7 | 91.6 | 90.6 | Long-term stability, 6 weeks, 4°C, without daylight Accuracy [%] (validation standard MOV): 105.1%; Long-term stability, 1 month, -20°C Accuracy [%] (validation standard ULOV): 85.8%; Long-term stability, 1 month, -80°C Accuracy [%] (validation standard ULOV): 86.1%; Long-term stability, 2 month, -20°C Accuracy [%] (validation standard ULOV): 90.8%; Long-term stability, 2 month, -80°C Accuracy [%] (validation standard ULOV): 90.3%; Long-term stability, 3 month, -20°C Accuracy [%] (validation standard ULOV): 87.7%; Long-term stability, 3 month, -80°C Accuracy [%] (validation standard ULOV): 87.3%; Long-term stability, 6 weeks, 4°C, without daylight Accuracy [%] (validation standard ULOV): 95.0% |
| C[C@@H](Oc1cc(-c2cnn(C3CCNCC3)c2)cnc1N)c1c(Cl)ccc(F)c1Cl [Crizotinib] | 87.5 | 85.4 | 90.8 | 93.8 | 87.5 | 90.2 | 68.4 | 77.1 | 75.4 | 74.2 | 78.9 | 72.6 | 73.9 | 58.2 | 90.2 | 89.3 | 96.3 | 96.2 | 94.9 | 95.1 | Long-term stability, 6 weeks, 4°C, without daylight Accuracy [%] (validation standard MOV): 93.4%; Long-term stability, 1 month, -20°C Accuracy [%] (validation standard ULOV): 84.4%; Long-term stability, 1 month, -80°C Accuracy [%] (validation standard ULOV): 80.1%; Long-term stability, 2 month, -20°C Accuracy [%] (validation standard ULOV): 88.8%; Long-term stability, 2 month, -80°C Accuracy [%] (validation standard ULOV): 89.2%; Long-term stability, 3 month, -20°C Accuracy [%] (validation standard ULOV): 88.4%; Long-term stability, 3 month, -80°C Accuracy [%] (validation standard ULOV): 89.7%; Long-term stability, 6 weeks, 4°C, without daylight Accuracy [%] (validation standard ULOV): 83.8% |
